Laboratory results from ChEMBL document CHEMBL6134868, “Novel Aryl Sulfonium Modification on Vancomycin to Tackle MRSA and VRE In Vitro and In Vivo through Dual Enhanced Cell-Wall and Membrane Inhibition” (J Med Chem, 2025).
In brackets after ≈: the same amount, converted by molar mass. Activity calls are given as the source filed them. The calls are words filed in the database; no cut-off is given here.

Legend:
[1] = test system: Escherichia coli; assay: Antibacterial activity against Escherichia coli AB1157 incubated for 16 to 24 hrs by broth microdilution assay; assay type: functional; details: time 16-24 hrs
[2] = test system: Klebsiella pneumoniae; assay: Antibacterial activity against Klebsiella pneumoniae KP-1 incubated for 16 to 24 hrs by broth microdilution assay; assay type: functional; details: time 16-24 hrs
[3] = test system: Acinetobacter baumannii; assay: Antibacterial activity against carbapenem-resistant Acinetobacter baumannii CRAB-1 clinical isolate incubated for 16 to 24 hrs by broth microdilution assay; assay type: functional; details: time 16-24 hrs
[4] = test system: Enterococcus faecium; assay: Antibacterial activity against vancomycin-resistant Enterococcus faecium Efm-HS-08257 harboring VanM phenotype incubated for 16 to 24 hrs by broth microdilution assay; assay type: functional; details: time 16-24 hrs
[5] = test system: Staphylococcus aureus; assay: Antibacterial activity against methicillin-resistant Staphylococcus aureus USA300 LAC incubated for 16 to 24 hrs by broth microdilution assay; assay type: functional; details: time 16-24 hrs
[6] = test system: Enterococcus faecium; assay: Antibacterial activity against vancomycin-resistant Enterococcus faecium Efm-HS-0649 harboring VanA phenotype incubated for 16 to 24 hrs by broth microdilution assay; assay type: functional; details: time 16-24 hrs
[7] = test system: Pseudomonas aeruginosa; assay: Antibacterial activity against Pseudomonas aeruginosa PAO1 incubated for 16 to 24 hrs by broth microdilution assay; assay type: functional; details: time 16-24 hrs
[8] = test system: Acinetobacter baumannii; assay: Antibacterial activity against Acinetobacter baumannii ATCC19606 incubated for 16 to 24 hrs by broth microdilution assay; assay type: functional; details: time 16-24 hrs
[9] = test system: Staphylococcus aureus; assay: Antibacterial activity against vancomycin-intermediate Staphylococcus aureus Mu50 incubated for 16 to 24 hrs by broth microdilution assay; assay type: functional; details: time 16-24 hrs
[10] = test system: Enterococcus faecium; assay: Antibacterial activity against vancomycin-resistant Enterococcus faecium Efm-HS-vb02 harboring VanB phenotype incubated for 16 to 24 hrs by broth microdilution assay; assay type: functional; details: time 16-24 hrs
[11] = test system: Enterococcus faecium; assay: Antibacterial activity against vancomycin-resistant Enterococcus faecium Efm-HS-vb01 harboring VanB phenotype incubated for 16 to 24 hrs by broth microdilution assay; assay type: functional; details: time 16-24 hrs
[12] = test system: Enterococcus faecium; assay: Antibacterial activity against vancomycin-resistant Enterococcus faecium SC-2022-D2-059 harboring VanA phenotype incubated for 16 to 24 hrs by broth microdilution assay; assay type: functional; details: time 16-24 hrs
[13] = test system: Enterococcus faecium; assay: Antibacterial activity against vancomycin-resistant Enterococcus faecium SC-2022-D2-059 harboring VanA phenotype infected in ICR mouse assessed as animal survival rate at 20 mg/kg, iv measured for 7 days relative to control; assay type: functional; details: SC-2022-D2-059, 168 h, time 7 day
[14] = Hemolytic activity against rat erythrocytes at 100 ug/ml incubated for 1 hr by absorbance based assay; assay type: toxicity, cell-based, Erythrocyte; details: erythrocytes, at 100 µg/mL, read-out: Activity
[15] = Protein binding in plasma (unknown origin); assay type: ADME, cell-free; details: read-out: PPB (converted)
[16] = test system: Staphylococcus aureus; assay: Antibacterial activity against methicillin-resistant Staphylococcus aureus USA300 LAC infected in female BALB/c mouse assessed as animal survival rate at 7 mg/kg, iv measured for 7 days consecutively relative to control; assay type: functional; details: time 7.0 day

`CC(C)C[C@H](C(=O)N[C@H]1C(=O)N[C@@H](CC(N)=O)C(=O)N[C@H]2C(=O)N[C@H]3C(=O)N[C@H](C(=O)N[C@H](C(=O)O)c4cc(O)cc(O)c4-c4cc3ccc4O)[C@H](O)c3ccc(c(Cl)c3)Oc3cc2cc(c3O[C@@H]2O[C@H](CO)[C@@H](O)[C@H](O)[C@H]2O[C@H]2C[C@](C)(N)[C@H](O)[C@H](C)O2)Oc2ccc(cc2Cl)[C@H]1O)N(C)CCC[S+](C)C[C@H](O)COc1ccccc1.O=C([O-])C(F)(F)F` (stereo not given in full) showed an MIC [1] greater than 128 µg/mL, an MIC [2] greater than 128 µg/mL and an MIC [3] greater than 128 µg/mL. It also gave an MIC [4] of 128 µg/mL, an MIC [5] of 2 µg/mL and an MIC [6] greater than 128 µg/mL. It also gave an MIC [7] greater than 128 µg/mL, an MIC [8] greater than 128 µg/mL and an MIC [9] of 8 µg/mL. For the same molecule, the MIC [10] was 32 µg/mL and the MIC [11] was 64 µg/mL.
In the case of `CN[C@H](CC(C)C)C(=O)N[C@H]1C(=O)N[C@@H](CC(N)=O)C(=O)N[C@H]2C(=O)N[C@H]3C(=O)N[C@H](C(=O)N[C@H](C(=O)O)c4cc(O)cc(O)c4-c4cc3ccc4O)[C@H](O)c3ccc(c(Cl)c3)Oc3cc2cc(c3O[C@@H]2O[C@H](CO)[C@@H](O)[C@H](O)[C@H]2O[C@H]2C[C@](C)(N)[C@H](O)[C@H](C)O2)Oc2ccc(cc2Cl)[C@H]1O` [VANCOMYCIN], the MIC [1] is reported as greater than 128 µg/mL, the MIC [2] is reported as greater than 128 µg/mL and the MIC [3] is reported as greater than 128 µg/mL. For the same molecule, the MIC [12] was no less than 128 µg/mL, the MIC [4] was greater than 128 µg/mL and the survival at 20 mg/kg [13] was 0%. For the same molecule, the hemolysis at 1 h, 100 ug/ml [14] was roughly 6%, the MIC [6] was greater than 128 µg/mL and the fraction unbound [15] was 0.9. For the same molecule, the MIC [7] was greater than 128 µg/mL, the MIC [8] was greater than 128 µg/mL and the MIC [9] was 8 µg/mL (≈ 5.52 µM). For the same molecule, the MIC [10] was 16 µg/mL (≈ 11 µM), the Activity [16] was “inactive” and the MIC [11] was greater than 128 µg/mL.
Work on `CN[C@H](CC(C)C)C(=O)N[C@H]1C(=O)N[C@@H](CC(N)=O)C(=O)N[C@H]2C(=O)N[C@H]3C(=O)N[C@H](C(=O)N[C@H](C(=O)O)c4cc(O)c(CNCCCSCC(O)COc5ccc(-c6ccc(C(F)(F)F)cc6)cc5)c(O)c4-c4cc3ccc4O)[C@H](O)c3ccc(c(Cl)c3)Oc3cc2cc(c3O[C@@H]2O[C@H](CO)[C@@H](O)[C@H](O)[C@H]2O[C@H]2C[C@](C)(N)[C@H](O)[C@H](C)O2)Oc2ccc(cc2Cl)[C@H]1O` (stereo not given in full) yielded an MIC [1] greater than 128 µg/mL, an MIC [2] greater than 128 µg/mL and an MIC [3] of 128 µg/mL (≈ 69.3 µM). The MIC [4] was 2 µg/mL (≈ 1.08 µM), the MIC [5] was 0.125 µg/mL (≈ 0.0677 µM) and the MIC [6] was 4 µg/mL (≈ 2.17 µM). It also gave an MIC [7] greater than 128 µg/mL, an MIC [8] of 32 µg/mL (≈ 17.3 µM) and an MIC [9] of 1 µg/mL (≈ 0.541 µM). It also gave an MIC [10] of 2 µg/mL (≈ 1.08 µM) and an MIC [11] of 4 µg/mL (≈ 2.17 µM).
`CCCCCCCCCCNCCN[C@@]1(C)C[C@H](O[C@H]2[C@H](Oc3c4cc5cc3Oc3ccc(cc3Cl)[C@@H](O)[C@@H](NC(=O)[C@@H](CC(C)C)NC)C(=O)N[C@@H](CC(N)=O)C(=O)N[C@H]5C(=O)N[C@H]3C(=O)N[C@H](C(=O)N[C@H](C(=O)O)c5cc(O)c(CNCP(=O)(O)O)c(O)c5-c5cc3ccc5O)[C@H](O)c3ccc(c(Cl)c3)O4)O[C@H](CO)[C@@H](O)[C@@H]2O)O[C@@H](C)[C@H]1O` [TELAVANCIN] showed a fraction unbound [15] of 0.1.
In the case of `CN[C@H](CC(C)C)C(=O)N[C@H]1C(=O)N[C@@H](CC(N)=O)C(=O)N[C@H]2C(=O)N[C@H]3C(=O)N[C@H](C(=O)N[C@H](C(=O)O)c4cc(O)cc(O)c4-c4cc3ccc4O)[C@H](O)c3ccc(c(Cl)c3)Oc3cc2cc(c3O[C@@H]2O[C@H](CO)[C@@H](O)[C@H](O)[C@H]2O[C@H]2C[C@](C)(NCCC[S+](C)C[C@@H](O)COc3ccccc3)[C@H](O)[C@H](C)O2)Oc2ccc(cc2Cl)[C@H]1O.O=C([O-])C(F)(F)F` (stereo not given in full), the MIC [1] is reported as 128 µg/mL, the MIC [2] is reported as greater than 128 µg/mL and the MIC [3] is reported as 128 µg/mL. The MIC [4] was 16 µg/mL, the MIC [5] was 0.25 µg/mL and the MIC [6] was 16 µg/mL. For the same molecule, the MIC [7] was greater than 128 µg/mL, the MIC [8] was 128 µg/mL and the MIC [9] was 1 µg/mL. It also gave an MIC [10] of 4 µg/mL and an MIC [11] of 16 µg/mL.
With `CN[C@H](CC(C)C)C(=O)N[C@H]1C(=O)N[C@@H](CC(N)=O)C(=O)N[C@H]2C(=O)N[C@H]3C(=O)N[C@H](C(=O)N[C@H](C(=O)NCCC[S+](C)CC(O)COc4ccc(OC)cc4)c4cc(O)cc(O)c4-c4cc3ccc4O)[C@H](O)c3ccc(c(Cl)c3)Oc3cc2cc(c3O[C@@H]2O[C@H](CO)[C@@H](O)[C@H](O)[C@H]2O[C@H]2C[C@](C)(N)[C@H](O)[C@H](C)O2)Oc2ccc(cc2Cl)[C@H]1O.O=C([O-])C(F)(F)F` (stereo not given in full) the MIC [1] was 16 µg/mL, the MIC [2] was greater than 128 µg/mL and the MIC [3] was 64 µg/mL. It also gave an MIC [4] of 16 µg/mL, an MIC [5] of 0.25 µg/mL and an MIC [6] of 32 µg/mL. For the same molecule, the MIC [7] was greater than 128 µg/mL, the MIC [8] was 64 µg/mL and the MIC [9] was 2 µg/mL. For the same molecule, the MIC [10] was 4 µg/mL and the MIC [11] was 16 µg/mL.
